test system: IFV A/PR/8/34; test: cytopathic effect (CPE) antiviral test in MDCK cells, IFV A/PR/8/34; assay type: cell-based, influenza virus; conditions: MDCK cells, CPE method, CCK-8 cell viability, 5 days; read-out: EC50(IFV A/PR/8/34)

| Compound | EC50 [nM] |
| --- | --- |
| Cn1cncc1-c1ccc2nc(-c3ccnc(C(=O)N4CCN(C(c5ccccc5)c5nnn(C(F)F)n5)CC4)c3)oc2c1 (racemic) [Compound 160, (R/S)-(4-((2-(difluoromethyl)-2H-tetrazol-5-yl)(phenyl)-13-methyl)piperazin-1-yl)(4-(6-(1-methyl-1H-imidazol-5-yl)benzo[d]oxazol-2-yl)pyridin-2-yl)methanone] | 18 |

same assay, conditions: unidentified influenza virus, PR/8, MDCK, 120 h, read-out: EC50(IFV A/PR/8/34)

| Compound | EC50 [nM] |
| --- | --- |
| Cn1nccc1-c1ccc2oc(-c3ccnc(C(=O)N4CCN(C(c5ccccc5)c5nnn(C(F)F)n5)CC4)c3)nc2c1 (racemic) [Compound 152, (R/S)-(4-((2-(difluoromethyl)-2H-tetrazol-5-yl)(phenyl)methyl)piperazin-1-yl)(4-(5-(1-methyl-1H-pyrazol-5-yl)benzo[d]oxazol-2-yl)pyridin-2-yl)methanone] | 5 |
| CNCc1nnn(C(c2ccccc2)C2CCN(C(=O)c3cc(-c4nc5cc(NC(=O)[C@@H]6C[C@@H]6F)ccc5o4)ccn3)CC2)n1 (mixture of isomers) [Compound 211, (1S,2S)-2-fluoro-N-(2-(2-(4-((R/S)-(5-((methylamino)methyl)-2H-tetrazol-2-yl)(phenyl)methyl)piperidine-1-carbonyl)pyridin-4-yl)benzo[d]oxazol-5-yl)cyclopropane-1-carboxamide] | 0.3 |
| Cc1nnn(C(c2ccccc2)C2CCN(C(=O)c3cc(-c4nc5cc(NC(=O)[C@@H]6C[C@H]6F)ccc5o4)ccn3)CC2)n1 (mixture of isomers) [Compound 190, (1S,2R)-2-fluoro-N-(2-(2-(4-((R/S)-(5-methyl-2H-tetrazol-2-yl)(phenyl)methyl)piperidine-1-carbonyl)pyridin-4-yl)benzo[d]oxazol-5-yl)cyclopropane-1-carboxamide] | 11 |
| Cc1nnn(C(c2ccccc2)C2CCN(C(=O)c3cc(-c4nc5cc(-c6cnsc6)ccc5o4)ccn3)CC2)n1 (racemic) [Compound 140, (R/S)-(4-(5-(isothiazol-4-yl)benzo[d]oxazol-2-yl)pyridin-2-yl)(4-((5-methyl-2H-tetrazol-2-yl)(phenyl)methyl)piperidin-1-yl)methanone] | 4 |
| O=C(c1cc(-c2nc3cc(-c4cn(C(F)F)cn4)ccc3o2)ccn1)N1CCC(C(c2ccccc2)n2nnc(CO)n2)CC1 (racemic) [Compound 207, (R/S)-(4-(5-(1-(difluoromethyl)-1H-imidazol-4-yl)benzo[d]oxazol-2-yl)pyridin-2-yl)(4-((5-(hydroxymethyl)-2H-tetrazol-2-yl)(phenyl)methyl)piperidin-1-yl)methanone] | 1.3 |
| Cc1nnn(C(c2ccccc2)C2CCN(C(=O)c3cc(-c4nc5cc(-c6cnn(C)c6C)ccc5o4)ccn3)CC2)n1 (racemic) [Compound 187, (R/S)-(4-(5-(1,5-dimethyl-1H-pyrazol-4-yl)benzo[d]oxazol-2-yl)pyridin-2-yl)(4-((5-methyl-2H-tetrazol-2-yl)(phenyl)methyl)piperidin-1-yl)methanone] | 6 |
| O=C(Nc1ccc2oc(-c3ccnc(C(=O)N4CCC(C(c5ccccc5)n5nnc(C(F)F)n5)CC4)c3)nc2c1)[C@@H]1C[C@@H]1F (mixture of isomers) [Compound 138, (1S,2S)—N-(2-(2-(4-((R/S)-(5-(difluoromethyl)-2H-tetrazol-2-yl)(phenyl)methyl)piperidine-1-carbonyl)pyridin-4-yl)benzo[d]oxazol-5-yl)-2-fluorocyclopropanecarboxamide] | 4 |
| O=C(c1cc(-c2nc3cc(-c4cncn4C(F)F)ccc3o2)ccn1)N1CCC(C(c2ccccc2)n2nnc(CO)n2)CC1 (racemic) [Compound 206, (R/S)-(4-(5-(1-(difluoromethyl)-1H-imidazol-5-yl)benzo[d]oxazol-2-yl)pyridin-2-yl)(4-((5-(hydroxymethyl)-2H-tetrazol-2-yl)(phenyl)methyl)piperidin-1-yl)methanone] | 4.5 |
| [2H]c1c([2H])c([2H])c([C@@H](C2CCN(C(=O)c3cc(-c4nc5cc(NC(=O)[C@@H]6C[C@@H]6F)ccc5o4)ccn3)CC2)n2nnc(C)n2)c([2H])c1[2H] [Compound 205, (1S,2S)-2-fluoro-N-[2-[2-[4-[(R)-(5-methyltetrazol-2-yl)-(2,3,4,5,6-pentadeuteriophenyl)methyl]piperidine-1-carbonyl]-4-pyridyl]-1,3-benzoxazol-5-yl]cyclopropanecarboxamide] | 5.5 |
| Cc1nnn(C(c2ccccc2)C2CCN(C(=O)c3cc(-c4nc5cc(-c6cnn(C)c6)ccc5o4)ccn3)CC2)n1 (racemic) [Compound 133, (R/S)-(4-(5-(1-methyl-1H-pyrazol-4-yl)benzo[d]oxazol-2-yl)pyridin-2-yl)(4-((5-methyl-2H-tetrazol-2-yl)(phenyl)methyl)piperidin-1-yl)methanone] | 33 |
| Cc1nnn(C(c2ccccc2)C2CCN(C(=O)c3cc(-c4cc5cc(-c6cncn6C)ccc5o4)ccn3)CC2)n1 (racemic) [Compound 186, (R/S)-(4-(5-(1-methyl-1H-imidazol-5-yl)benzofuran-2-yl)pyridin-2-yl)(4-((5-methyl-2H-tetrazol-2-yl)(phenyl)methyl)piperidin-1-yl)methanone] | 2 |
| Cc1cn(-c2ccc3oc(-c4ccnc(C(=O)N5CCC(C(c6ccccc6)n6nnc(C)n6)CC5)c4)nc3c2)cn1 (racemic) [Compound 189, (R/S)-(4-(5-(4-methyl-1H-imidazol-1-yl)benzo[d]oxazol-2-yl)pyridin-2-yl)(4-((5-methyl-2H-tetrazol-2-yl)(phenyl)methyl)piperidin-1-yl)methanone] | 11 |
| CC(=O)OCc1nnn(C(c2ccccc2)C2CCN(C(=O)c3cc(-c4nc5cc(NC(=O)[C@@H]6C[C@@H]6F)ccc5o4)ccn3)CC2)n1 (mixture of isomers) [Compound 199, (2-((R/S)-(1-(4-(5-((1S,2S)-2-fluorocyclopropane-1-carboxamido)benzo[d]oxazol-2-yl)picolinoyl)piperidin-4-yl)(phenyl)methyl)-2H-tetrazol-5-yl)methyl acetate] | 1.8 |
| Cc1n[nH]c(C)c1-c1ccc2oc(-c3ccnc(C(=O)N4CCN(C(c5ccccc5)c5nnn(C(F)F)n5)CC4)c3)nc2c1 (racemic) [Compound 156, (R/S)-(4-((2-(difluoromethyl)-2H-tetrazol-5-yl)(phenyl)methyl)piperazin-1-yl)(4-(5-(3,5-dimethyl-1H-pyrazol-4-yl)benzo[d]oxazol-2-yl)pyridin-2-yl)methanone] | 7 |
| Cc1nnn(C(c2ccccc2)C2CCN(C(=O)c3cc(-c4cc5cc(NC(=O)C(C)(C)F)ccc5o4)ccn3)CC2)n1 (racemic) [Compound 142, (R/S)-2-fluoro-2-methyl-N-(2-(2-(4-((5-methyl-2H-tetrazol-2-yl)(phenyl)methyl)piperidine-1-carbonyl)pyridin-4-yl)benzofuran-5-yl)propanamide] | 23 |
| [2H]C([2H])([2H])C(C(=O)Nc1ccc2oc(-c3ccnc(C(=O)N4CCN([C@H](c5ccccc5)c5nnn(C(F)F)n5)CC4)c3)cc2c1)C([2H])([2H])[2H] [Compound 136, 3,3,3-trideuterio-N-[2-[2-[4-[(R)-[2-(difluoromethyl)tetrazol-5-yl]-phenyl-methyl]piperazine-1-carbonyl]-4-pyridyl]benzofuran-5-yl]-2-(trideuteriomethyl)propanamide] | 8 |
| Cc1nnn(C(c2ccccc2)C2CCN(C(=O)c3cc(-c4nc5cc(-c6ccn(C)n6)ccc5o4)ccn3)CC2)n1 (racemic) [Compound 183, (R/S)-(4-(5-(1-methyl-1H-pyrazol-3-yl)benzo[d]oxazol-2-yl)pyridin-2-yl)(4-((5-methyl-2H-tetrazol-2-yl)(phenyl)methyl)piperidin-1-yl)methanone] | 18 |
| O=C(Nc1ccc2oc(-c3ccnc(C(=O)N4CCN(C(c5ccsc5)c5nnn(C(F)F)n5)CC4)c3)nc2c1)[C@@H]1C[C@@H]1F (mixture of isomers) [Compound 122, (1S,2S)—N-(2-(2-(4-((R/S)-(2-(difluoromethyl)-2H-tetrazol-5-yl)(thiophen-3-yl)methyl)piperazine-1-carbonyl)pyridin-4-yl)benzo[d]oxazol-5-yl)-2-fluorocyclopropane-1-carboxamide] | 19 |
| O=C(c1cc(-c2nc3cc(-c4cnn(C5CC5)c4)ccc3o2)ccn1)N1CCN(C(c2ccccc2)c2nnn(C(F)F)n2)CC1 (racemic) [Compound 148, (R/S)-(4-(5-(1-cyclopropyl-1H-pyrazol-4-yl)benzo[d]oxazol-2-yl)pyridin-2-yl)(4-((2-(difluoromethyl)-2H-tetrazol-5-yl)(phenyl)methyl)piperazin-1-yl)methanone] | 33 |
| O=C(c1cc(-c2nc3cc(-c4cncn4C(F)F)ccc3o2)ccn1)N1CCN(C(c2ccccc2)c2nnn(C(F)F)n2)CC1 (racemic) [Compound 171, (R/S)-(4-(5-(1-(difluoromethyl)-1H-imidazol-5-yl)benzo[d]oxazol-2-yl)pyridin-2-yl)(4-((2-(difluoromethyl)-2H-tetrazol-5-yl)(phenyl)methyl)piperazin-1-yl)methanone] | 5 |
| O=C(c1cc(-c2nc3cc(-c4ccns4)ccc3o2)ccn1)N1CCN(C(c2ccccc2)c2nnn(C(F)F)n2)CC1 (racemic) [Compound 115, (R/S)-(4-((2-(difluoromethyl)-2H-tetrazol-5-yl)(phenyl)methyl)piperazin-1-yl)(4-(5-(isothiazol-5-yl)benzo[d]oxazol-2-yl)pyridin-2-yl)methanone] | 64 |
| Cc1c(-c2ccc3oc(-c4ccnc(C(=O)N5CCN(C(c6ccccc6)c6nnn(C(F)F)n6)CC5)c4)nc3c2)cnn1C (racemic) [Compound 154, (R/S)-(4-((2-(difluoromethyl)-2H-tetrazol-5-yl)(phenyl)methyl)piperazin-1-yl)(4-(5-(1,5-dimethyl-1H-pyrazol-4-yl)benzo[d]oxazol-2-yl)pyridin-2-yl)methanone] | 5 |
| Cn1ccc(-c2ccc3oc(-c4ccnc(C(=O)N5CCN(C(c6ccccc6)c6nnn(C(F)F)n6)CC5)c4)nc3c2)n1 (racemic) [Compound 153, (R/S)-(4-((2-(difluoromethyl)-2H-tetrazol-5-yl)(phenyl)methyl)piperazin-1-yl)(4-(5-(1-methyl-1H-pyrazol-3-yl)benzo[d]oxazol-2-yl)pyridin-2-yl)methanone] | 7 |
